In data set [1] the test system is MCF-7 cells. Briefly: Cytotoxicity of RNAh-Bio-670-THP and RNAh-Bio-670-DNR nanoparticles, CTG. The format is cell-based, human. As to conditions: MCF-7, 72 h, 200 nM.
Procedure: 1) Using the RPMI1640+10% FBS+1% PS medium to culture the MOLT4 cells at 37 DEG C. and 5% CO2.
2) Collecting the cells, centrifuging at 800 rpm for 5 minutes, resuspending the medium, adjusting the cell concentration, and adding to the 96-we plate in a volume of 5000 cells per 90 μL.
3) Diluting a sample to be tested with the culture medium on the next day, respectively adding 200 nM to each sample, herein each sample has 4 replicate wells for replication.
4) After being cultured for 72 hours, adding 100 μL of the CTG reagent to each well, shaking for 2 minutes, and standing at the room temperature for 10 minutes, herein a whole process is protected from light.
5) Finally using Soft Max Pro5 software to read.
Samples to be tested: small molecular drug THP and RNAh-Bio-670-THP nanoparticles;
1) Except that it is the MCF-7 cells, the rest are the same as (III).
The subject of data set [2] is HepG2 cells. Nature of the data set: Cytotoxicity of RNAh-Biotin-quasar670-flu nanoparticles. Format: cell-based. As to the method:
I. Samples to be tested: small molecular […] chemical drug and RNAh-Biotin-quasar670-flu nanoparticles.
In order to further determine that the RNA nanoparticles without carrying the […] have no apparent cytotoxicity to the HepG2 cells, the inventor further designs a toxicity experiment of the RNAh-Biotin-FAM (FAM is a fluorescent marker), a targeted fluorescent carrier, to the HepG2 cells (a drug administration gradient in the experiment is as follows: 100 μM, 31.6 μM, 10 μM, 3.16 μM, 1 μM, 316 nM, 100 nM, 31.6 nM, 10 nM, and 0 (10% PBS)), the results thereof are shown in Table 134 and FIG. 95.

Data set [3] has as its system NCI-H1975 cells. Briefly: Cytotoxicity of DNAh-Bio-EGFRapt-Cy5-EPB nanoparticles, CellTiter 96 AQueous One Solution. Format: cell-based. As to conditions: for IC50: NCI-H1975, 96 hours.
Procedure: GraphPad Prism5.0 software is used to process data graphically. In order to calculate the IC50, “W”-shaped non-linear regression analysis is performed on the data to match a suitable dosage-effect curve. A calculation formula of the cell survival rate is as follows, the IC50 may be automatically calculated in the GraphPad Prism 5.0.
Data set [4] relates to HL60 cells. Briefly: Cytotoxicity of RNAh-Bio-670-EPB nanoparticles, CellTiter-Glo. The format is cell-based. Conditions: Homo sapiens, HL-60, 72 hours. As to the method: Preparing a freshly prepared reagent into a corresponding volume container, and adding PBS to be quantified to 10 μM.
Cells are cultured at 37 DEG C. and 5% CO2 in a corresponding basal medium in which 10% FBS and 1% PS are respectively added. The cell density used in the experiment is above 80%. The cells are collected, and centrifuged at 1000 rpm for 4 minutes, the medium is resuspended, the cell concentration is adjusted, and it is added to the 96-well plate in a volume of 3000 cells per 50 μL, and each group has 3 replicate wells.
After 24 hours, the compound solution is transferred to each well by 50 μL/well.
The above cells after administration are cultured for 72 hours under a condition of 37 DEG C and 5% CO2.
The well plate is brought to a room temperature in advance and stands for 30 minutes, 100 μL of a CellTiter-Glo® reagent is added to each well of the well plate and mixed for 2 minutes on a shaker to promote cell lysis. The Perkin Elmer Envision 2104 Multilabel Reader is used to read values and the values are recorded.
The acquired experiment data is analyzed and processed by using excel software, and GraphPad Prism 5 software is used for curve fitting analysis.

Data set [5] has as its system MCF-7 cells. Nature of the data set: Cytotoxicity of DNAh-Bio-EGFRapt-Cy5-EPB nanoparticles, CellTiter 96 AQueous One Solution. The format is cell-based, human.
Source text: GraphPad Prism5.0 software is used to process data graphically. […] A calculation formula of the cell survival rate is as follows, the IC50 may be automatically calculated in the GraphPad Prism 5.0. […]
Data set [6] deals with SKOV3 cells. Nature of the data set: Cytotoxicity of DNAh-Biotin-EGFRapt-Cy5-THP nanoparticles. Conditions: SKOV3. The format is cell-based, human. On the procedure:
(§1) 2) adjusting the cell density to 2.22×10^4/mL with a growth medium:
(§2) 3) planting 90 μL/well of cell suspension into the 96-well plate, herein the number of cells per well in the plate is 2000;
(§3) 4) placing the planted cell plate in the incubator at 37 DEG C. and incubating overnight;
(§4) 5) performing 3.16-fold gradient dilution on the compound at 9 concentration points;
(§5) 6) taking out the cell culture plate, and adding 10 μL/well of 10× concentration drug working solution to the corresponding wells of the cell culture plate, herein three replicate holes are made for each concentration, and the final drug action concentration is shown in the table below.
(§6) 7) placing the cell culture plate in the incubator and continuously incubating for 96 hours;
(§7) 8) placing the CellTiter 96@D AQueous One Solution reagent at the room temperature and thawing for 90 minutes or thawing in a water bath at 37 DEG C., and then equilibrating at the room temperature for 30 minutes;
(§8) 9) adding 20 μL/well of the CellTiter 96® AQueous One Solution reagent to the cell culture plate;
(§9) 10) placing the cell culture plate in the incubator at 37 DEG C. and continuously incubating for 3 hours;
(§10) 11) using the microplate reader to read a OD490 value of each well in the cell plate; and
(§11) 12) data processing and analysis.
(§12) GraphPad Prism5.0 software is used to process data graphically. In order to calculate the IC50, […] non-linear regression analysis is performed on the data to match a suitable dosage-effect curve. A calculation formula of the cell survival rate is as follows, the IC50 may be automatically calculated in the GraphPad Prism 5.0.
(§13) Cell survival rate (%)=(ODtest well−ODblank control)/(ODnegative control−ODblank control)×100%.
(§14) II. Experiment Device and Method Same as (II)

Data set [7] concerns SGC-7901 cells. The description is as above. Format: cell-based, human. Conditions: SGC-7901. As to the method: as §1, §2, §3, §4, §5, §6, §7, §8, §9, §10, §11, §12, §13, §14
Data set [8] relates to NCI-H1975 cells. Nature of the data set: Flow cytometry binding of DNAh-Bio-EGFRapt-Cy5-EPB nanoparticles. The format is cell-based. As to conditions: 2 hours. As to the method:
(§15) MCF-7 (source: ATCC, and article number: HTB-22), NCI-H1975 (source: ATCC, and article number: CRL-5008); a culture medium is MEM+10% FBS, and culture conditions are 37 DEG C., 5% CO2, and saturated humidity.
(§16) 1. Adjusting a cell state to a logarithmic growth phase, changing the medium to a medium without biotin and folic acid, and incubating overnight in the incubator at 37 DEG C;
(§17) 2. dissolving the substances to be tested and preparing the to-be-tested substance stock solution;
(§18) 3. digesting and collecting the single-cell suspension and counting, adjusting the cell density to 2×10^5/mL, planting 1 mL/well into the 24-well plate;
(§19) 4. respectively adding the substances to be tested to the corresponding cell wells, herein the final concentration is 2 μM, shaking and mixing uniformly;
(§20) 5. placing the cell plate in the incubator at 37 DEG C. and incubating for 2 hours;
(§21) 6. after the incubation, pancreatin-digesting and collecting the cell suspension;
(§22) 7. centrifugally collecting a cell precipitation, and washing twice with the PBS;
(§23) 8. finally, resuspending the cell precipitation with 300 μL of the PBS, and performing a flow cytometric on-machine detection;
(§24) 9. fluorescence carrier or epirubicin detection channels: excitation light wavelength: 488 nm, and emission light channel: 560 nm; and […]

The test system of data set [9] is MCF-7 cells. The description is as above. Format: cell-based, human. As to conditions: 2 hours. On the procedure: as §15, §16, §17, §18, §19, §20, §21, §22, §23, §24
The test system of data set [10] is SKOV3 cells. Briefly: Flow cytometer binding of pirarubicin-loaded DNA nanoparticles. The format is cell-based, human. As to conditions: SKOV3, 2 μM, 2 hours. As to the method:
(§25) 1). Adjusting a cell state to a logarithmic growth phase, changing the medium to a medium without biotin and folic acid, and incubating overnight in the incubator at 37 DEG C;
(§26) 2). dissolving the substances to be tested and preparing the to-be-tested substance stock solution;
(§27) 3). digesting and collecting the single-cell suspension and counting, adjusting the cell density to 2×10^5/mL, planting 1 mL/well into the 24-well plate;
(§28) 4). respectively adding the substances to be tested to the corresponding cell wells, herein the final concentration is 2 μM, shaking and mixing uniformly;
(§29) 5). placing the cell plate in the Incubator at 37 DEG C. and Incubating for 2 hours;
(§30) 6). after the incubation, pancreatin-digesting and collecting the cell suspension;
(§31) 7). centrifugally collecting a cell precipitation, and washing twice with the PBS;
(§32) 8). finally, resuspending the cell precipitation with 300 μL of the PBS, and performing a flow cytometric on-machine detection; herein detection channels of fluorescence carrier or pirarubicin targeted drug: excitation light wavelength: 488 nm, and emission light channel: 560 nm; and […]
(In general: A flow cytometer gives signals particle by particle.)

For data set [11], the system named is SGC-7901 cells. The description is as above. The format is cell-based, human. As to conditions: SGC-7901, 2 μM, 2 hours. As to the method: as §25, §26, §27, §28, §29, §30, §31, §32

{Biotin} = biotin of the strand; {Cy5} = Cy5 fluorescent label

Regarding `COc1cccc2c1C(=O)c1c(O)c3c(c(O)c1C2=O)C[C@@](O)(C(C)=O)C[C@@H]3O[C@H]1C[C@H](N)[C@H](O)[C@H](C)O1` [Daunorubicin (DNR)], the “cell survival rate (%)” value in [1] turned out to be 17.33%.

For the molecule `COc1cccc2c1C(=O)c1c(O)c3c(c(O)c1C2=O)C[C@@](O)(C(=O)CO)C[C@@H]3O[C@H]1C[C@H](N)[C@H](O[C@@H]2CCCCO2)[C@H](C)O1` [Pirarubicin (THP)], in [1], the “cell survival rate (%)” value is on record as 13.85%.

On to `O=c1[nH]cc(F)c(=O)[nH]1` [pentafluorouracil], for which, in data set [2] (HepG2, 72 h, 5 μM), the “Cell inhibition rate (%) when administration concentration is 5 μM” value is 39.02%. Also, the “cell inhibition rate (%), HepG2 cells” value in [2] (administration concentration 5 μM) amounted to 39.02%.

The term inhibition denotes how much of the control response was suppressed. Take `COc1cccc2c1C(=O)c1c(O)c3c(c(O)c1C2=O)C[C@@](O)(C(=O)CO)C[C@@H]3O[C@H]1C[C@H](N)[C@@H](O)[C@H](C)O1` [EPB, epirubicin]: the “toxicity to NCI-H1975 cells” value in [3] (96 hours) is “toxic to the NCI-H1975 cells”. Besides, the IC50 in data set [3] (Homo sapiens) turned out to be 30.6 nM; in data set [4] (read-out: IC50, HL60 cell proliferation) it was 69.8 nM; in data set [5] (Homo sapiens, MCF7, MCF-7, 96 hours) it was 84.7 nM. Also, the inhibition at 5 µM in [4] (concentration 5 μM, read-out: inhibition rate on HL60 cells) was found to be 99.2%. Moreover, the “toxicity to MCF-7 cells” value in data set [5] (96 hours) is listed as “toxic to the MCF-7 cells”.

B1: DNAh-Bio-EGFRapt-Cy5: targeted fluorescent carrier: DNA nanoparticle, strands SEQ ID NO: 172-174, 5′ biotin, EGFRapt, 3′ Cy5, thio-modified ends (nucleic acid)
chain 1: CGCGCGCCCACGAGCGTTCCGGGCGCGCCTTAGTAACGTGCTTTGATGTCGATTCGACAGGAGGC
chain 2: GCGCCCGGTTCGCCGCCAGCCGCCGC
chain 3: GCGGCGGCAGGCGGCCATAGCCGTGGGCGCGCG
modifications: chain 1: DNA, 5' {Biotin}, backbone not given here; chain 2: DNA, backbone not given here; chain 3: DNA, 3' {Cy5}, backbone not given here; first and last three bases thio-modified, DNA nanoparticle with EGFR aptamer, further chemistry not fully specified
With B1, the IC50 in data set [6] was over 1000 nM; in data set [7], over 316 nM; in data set [3], over 316 nM. Besides, the “binding rate to NCI-H1975 cells” value in data set [8] (2 μM) is given as 100%. Further, the “Binding rate (%)” value in [8] (NCI-H1975, 2 μM) stood at 100%; in data set [9] (MCF-7, 2 μM) it was 99.97%; in [10], 100%; in data set [11] it was 99.99%. Also, the “binding rate to MCF-7 cells” value in data set [9] (2 μM) was determined as 100%.

Source of the values: US20220226473A1, “Nucleic acid nanocarrier drug and preparation method thereof, pharmaceutical composition and application thereof” (BAI YAO ZHI DA (BEIJING) NANOBIO TECHNOLOGY CO., LTD., priority 2018, published 2022).
